Reference: patent publication US20080220977A1, “Computational strategy for discovering druggable gene networks from genome-wide RNA expression profiles” (GNI Ltd., priority 2005, published 2008)

Test system: human endothelial cells
Assay: Fenofibrate time-course microarray in human endothelial cells, GO Term Finder clusters of selected genes
Conditions: 25 μM fenofibrate, 18 hours microarray

CC(C)OC(=O)C(C)(C)Oc1ccc(C(=O)c2ccc(Cl)cc2)cc1 [fenofibrate]
# genes in GO annotation: cellular lipid metabolism (GO:0044255) (overexpressed genes): 21
# genes in GO annotation: cholesterol biosynthesis (GO:0006695) (overexpressed genes): 5
# genes in GO annotation: cholesterol metabolism (GO:0008203) (overexpressed genes): 7
# genes in GO annotation: lipid metabolism (GO:0006629) (overexpressed genes): 25
# genes in GO annotation: steroid biosynthesis (GO:0006694) (overexpressed genes): 7
# genes in GO annotation: steroid metabolism (GO:0008202) (overexpressed genes): 10
# genes in GO annotation: sterol biosynthesis (GO:0016126) (overexpressed genes): 6
# genes in GO annotation: sterol metabolism (GO:0016125) (overexpressed genes): 8
# genes in GO annotation: M phase (GO:0000279) (suppressed genes): 17
# genes in GO annotation: M phase of mitotic cell cycle (GO:0000087) (suppressed genes): 15
# genes in GO annotation: RNA splicing, via transesterification reactions (GO:0000375) (suppressed genes): 9
# genes in GO annotation: RNA splicing, via transesterification reactions with bulged adenosine as nucleophile (GO:0000377) (suppressed genes): 9
# genes in GO annotation: cell cycle (GO:0007049) (suppressed genes): 35
# genes in GO annotation: mRNA metabolism (GO:0016071) (suppressed genes): 13
# genes in GO annotation: mitosis (GO:0007067) (suppressed genes): 15
# genes in GO annotation: mitotic cell cycle (GO:0000278) (suppressed genes): 19
# genes in GO annotation: nuclear mRNA splicing, via spliceosome (GO:0000398) (suppressed genes): 9
# genes in GO annotation: regulation of cell cycle (GO:0000074) (suppressed genes): 22
